The values that follow come from patent publication US20190365785A1, “INHIBITION OF UNFOLDED PROTEIN RESPONSE FOR SUPPRESSING OR PREVENTING ALLERGIC REACTION TO FOOD” (Children's Hospital Medical Center, priority 2017, published 2019).

In one test the test system is BALB/c mice. Kind of test: UPR inhibitors in drinking water or oral in mouse model of food (egg) allergy. The test is classed as in vivo. Particulars: for intestinal UPR-related gene expression (except for BiP and ATF6) / intestinal pro-Th2 cytokine expression: 500 mg/kg/day in drinking water, FIG. 15A-15E; for hypothermia / mouse mast cell protease 1 (MMCP1) response / small intestinal UPR-related gene expression (except ATF6) / small intestinal pro-Th2 cytokine gene expression: mice induced to develop food allergy, 500 mg/kg in drinking water, FIG. 14. How it is done: BALB/c mice were induced to develop food allergy and were then treated with 500 mg/kg doses of metformin or TUDCA in drinking water.
BALB/c mice with established egg allergy were provided with drinking water that contained 500 mg/kg/day of metformin or TUDCA, or with ordinary drinking water. Both metformin and TUDCA suppressed intestinal UPR-related gene expression (except for BiP and ATF6) and pro-Th2 cytokine expression. Note the large increases in intestinal UPR-associated and pro-Th2 gene expression compared to naïve mice, and the partial suppression of UPR-associated and pro-Th2 genes by metformin and TUDCA (FIG. 15E).
BALB/c mice with established egg allergy were administered egg yolk plasma with or without 1 g/kg/day or 2 g/kg/day of metformin. Pro-Th2 cytokine and UPR-related gene expression was inhibited in skin (FIG. 16A) and lung (FIG. 16B).

In test [1] the test system is CACO-2 cells. Kind of test: Pro-Th2 cytokine expression by CACO-2 cells cultured with EYP, HC, MCT or sodium palmitate, with or without UPR inhibitors. The test is classed as cell-based, human. The protocol:
To evaluate whether the UPR induces pro-Th2 gene expression in cultured human intestinal epithelial cells, we evaluated the abilities of three UPR inhibitors to inhibit the ability of egg yolk plasma (EYP), heavy cream (HC), medium chain triglycerides (MCT), or sodium palmitate to induce pro-Th2 cytokine expression by CACO-2 cells. CACO-2 cells were cultured for 24 hours with medium alone, EW, negative control, EYP, HC, MCT, or sodium palmitate (positive control for UPR induction), with or without the UPR inhibitors metformin, TUDCA, or 4-PBA. mRNA was prepared, reverse-transcribed, and quantitated by real time PCR. […] CACO-2 cells were obtained from the American Type Culture Collection (ATCC), catalog number HTB-37. These cells were grown in ATCC-formulated Eagle's Minimum Essential Medium (EMEM) (Cat. No. 30-2003), supplemented with fetal bovine serum (FBS) to a final concentration of 20% (ATCC® Cat. No. 30-2020) and Gibco antibiotic-antimycotic mixture. The cells were cultured in 6-well, 12-well, or 24-well culture plates to approximately 85%-90% confluency. On the day of experiment, EMEM medium was prepared with the appropriate concentrations of stimulants and/or inhibitors and added to the cells. Following the period of culture (usually 6 or 24 hours), the cells were washed and lysed, and total RNA was purified using PureLink™ RNA Mini Kit (Thermo Fisher Cat. No. 12183018A). The purified total RNA was used to generate cDNA using a High-Capacity cDNA Reverse Transcription Kit (Applied Biosystems, Cat. No. 4368814). Gene expression was analyzed using the qPCR method with a BioRad My iQ™ Detection system, and compared to the expression of the GAPDH housekeeping gene.

Test [2] concerns CACO-2 cells. In words: Pro-Th2 cytokine protein production by CACO-2 cells (immunoprecipitation and Western blot). Format: cell-based, human. Particulars: 24 hr, Western blot, FIG. 4. The protocol: CACO-2 cells were cultured for 24 hr±palmitate or EYP. Cell lysates were prepared and normalized by protein concentration and direct α/β-tubulin Western blot. Lysates were serially incubated with anti-IL-25+protein G beads, anti-IL-33+protein G beads, and anti-TSLP+protein G beads. Laemmli buffer eluates from beads were analyzed by electrophoresis on a 4-20% polyacrylamide gel, blotted onto a PVDF membrane, and visualized by incubation with biotinylated anti-IL-25, anti-IL-33, or anti-TSLP mAb, followed by streptavidin-peroxidase and ECL WB substrate.
A general note: In western blotting, separated proteins are transferred to a membrane and probed.

Test [3] has as its system human intestinal organoids (HIO). In words: UPR-associated and pro-Th2 cytokine gene expression in human intestinal organoids injected with palmitate ± metformin or TUDCA. Format: cell-based. Particulars: lumen injection, FIG. 6A-6B. The protocol:
HIO were produced from human peripheral blood pluripotent stem cells having a single UPR-associated gene deleted by CRISPR/Cas9. Applicant injected the lumens of HIO with culture medium or palmitate to induce increased UPR-associated and pro-Th2 cytokine gene expression, and further injected the HIO lumens with metformin or TUDCA. mRNA levels for the UPR-associated and pro-Th2 cytokine genes were determined by real-time PCR.

Test [4] relates to CACO-2 cells. In words: UPR-related and pro-Th2 cytokine gene expression in CACO-2 cells cultured with lipid-free peanut extract ± metformin. Particulars: CACO-2 cells with peanut extract, treated with metformin. The test is classed as cell-based, human. The protocol:
Because the UPR can be induced by multiple mechanisms that are associated with cell stress, including mechanisms that are not associated with lipids, Applicant investigated the ability of aqueous extracts of allergenic foods other than eggs and milk to induce UPR-associated and pro-Th2 cytokine gene expression, and the ability of metformin to suppress these responses. CACO-2 cells were cultured for 24 hours with medium alone or with a lipid-free peanut extract±metformin. mRNA was reverse-transcribed and gene expression was determined by real time PCR.
CACO-2 cells were obtained from the American Type Culture Collection (ATCC), catalog number HTB-37. These cells were grown in ATCC-formulated Eagle's Minimum Essential Medium (EMEM) (Cat. No. 30-2003), supplemented with fetal bovine serum (FBS) to a final concentration of 20% (ATCC® Cat. No. 30-2020) and Gibco antibiotic-antimycotic mixture. The cells were cultured in 6-well, 12-well, or 24-well culture plates to approximately 85%-90% confluency.
On the day of experiment, EMEM medium was prepared with the appropriate concentrations of stimulants and/or inhibitors and added to the cells. […] Gene expression was analyzed using the qPCR method with a BioRad My iQ™ Detection system, and compared to the expression of the GAPDH housekeeping gene.

For test [5], the system named is CACO-2 cells. In words: CACO-2 cells cultured with egg yolk plasma or peanut extract, with or without lipase inhibitor Orlistat. Format: cell-based, human. Particulars: 24 hours, FIG. 3.
Description: CACO-2 cells were cultured for 24 hours with medium alone, egg yolk plasma, or peanut extract, with or without the lipase inhibitor Orlistat. mRNA was extracted and reverse transcribed, after which UPR-associated gene expression and pro-Th2 cytokine gene expression were determined by real time PCR. […] CACO-2 cells were obtained from the American Type Culture Collection (ATCC), catalog number HTB-37. These cells were grown in ATCC-formulated Eagle's Minimum Essential Medium (EMEM) (Cat. No. 30-2003), supplemented with fetal bovine serum (FBS) to a final concentration of 20% (ATCC® Cat. No. 30-2020) and Gibco antibiotic-antimycotic mixture. The cells were cultured in 6-well, 12-well, or 24-well culture plates to approximately 85%-90% confluency. On the day of experiment, EMEM medium was prepared with the appropriate concentrations of stimulants and/or inhibitors and added to the cells. Following the period of culture (usually 6 or 24 hours), the cells were washed and lysed, and total RNA was purified using PureLink™ RNA Mini Kit (Thermo Fisher Cat. No. 12183018A). The purified total RNA was used to generate cDNA using a High-Capacity cDNA Reverse Transcription Kit (Applied Biosystems, Cat. No. 4368814). Gene expression was analyzed using the qPCR method with a BioRad My iQ™ Detection system, and compared to the expression of the GAPDH housekeeping gene.
The mark [6] stands for this setting: summary statement of Applicant's results.
[7] abbreviates: 24 hours, real time PCR, FIG. 1.

Regarding `O=C(O)CCCc1ccccc1` [4-PBA, 4-phenylbutyrate], in the test with BALB/c mice (setting [6]), the established food allergy entry is reported as “suppresses”. The “suppression of EYP-, HC-, MCT- and palmitate-induced expression of the pro-Th2 cytokines” value (from here on “suppression … of the pro-Th2 cytokines”) with CACO-2 cells [1] (setting [7]) was “strong suppression”.

For `CCCCCCCCCCCCCCCC(=O)[O-].[Na+]` [sodium palmitate], the “pro-Th2 cytokine protein expression (IL-25, IL-33, TSLP)” value in the test on CACO-2 cells [2] is recorded as “increase”. In the test on CACO-2 cells [1] (24 hours, stimulant alone, real time PCR, FIG. 1), the “induction of expression of the pro-Th2 cytokines” value is “induced increased expression”. For the same compound, the “UPR-dependent induction of pro-Th2 cytokine genes” value in test [3] is “stimulated”.

Turning to `CN(C)C(=N)N=C(N)N` [metformin], the “expression of UPR-related genes” value in the test on CACO-2 cells [4] (FIG. 2 A) was “reduced expression”. Further, in the test with CACO-2 cells [4] (FIG. 2 B), the “expression of pro-Th2 cytokine genes” value is recorded as “reduced expression”. Moreover, in the test with BALB/c mice (established egg allergy), the “intestinal UPR-related gene expression (except for BiP and ATF6)” value is “suppressed”; the “intestinal pro-Th2 cytokine expression” value is reported as “suppressed”. Further, the “Pro-Th2 cytokine and UPR-related gene expression in skin” value with BALB/c mice (established egg allergy, egg yolk plasma, 1 g/kg/day or 2 g/kg/day oral, FIG. 16A) is on record as “inhibited”. In addition, the “Pro-Th2 cytokine and UPR-related gene expression in lung” value in the test on BALB/c mice (established egg allergy, egg yolk plasma, 1 g/kg/day or 2 g/kg/day oral, FIG. 16B) is given as “inhibited”. In the test on BALB/c mice, the hypothermia result is reported as “suppression”, the “mouse mast cell protease 1 (MMCP1) response” value was “suppression”, the “small intestinal UPR-related gene expression (except ATF6)” value was “suppression” and the “small intestinal pro-Th2 cytokine gene expression” value is given as “suppression”. Moreover, in the test with BALB/c mice (setting [6]), the “development of food allergy” value is “suppresses” and the established food allergy entry is on record as “suppresses”. Moreover, the “suppression … of the pro-Th2 cytokines” value in the test with CACO-2 cells [1] (setting [7]) was “strong suppression”. In addition, the “pro-Th2 cytokine gene induction by egg and milk lipid fractions and aqueous extracts of peanuts, walnut, codfish” value in the test on CACO-2 cells [1] (summary, every allergen tested) was “suppresses pro-Th2 cytokine gene induction in every case”. For the same compound, the “palmitate-induced UPR-associated and pro-Th2 cytokine gene expression” value in test [3] is “suppressed”.

With `C[C@H](CCC(=O)NCCS(=O)(=O)O)[C@H]1CC[C@H]2[C@@H]3[C@@H](O)C[C@@H]4C[C@H](O)CC[C@]4(C)[C@H]3CC[C@]12C` [TUDCA, tauroursodeoxycholic acid], in the test with BALB/c mice (established egg allergy), the “intestinal UPR-related gene expression (except for BiP and ATF6)” value is on record as “suppressed”; the “intestinal pro-Th2 cytokine expression” value is “suppressed”. Also, in the test on BALB/c mice, the hypothermia entry is listed as “suppression”, the “mouse mast cell protease 1 (MMCP1) response” value is on record as “suppression”, the “small intestinal UPR-related gene expression (except ATF6)” value is recorded as “suppression” and the “small intestinal pro-Th2 cytokine gene expression” value was “suppression”. The established food allergy result with BALB/c mice (setting [6]) was “suppresses”. The “suppression … of the pro-Th2 cytokines” value in the test with CACO-2 cells [1] (setting [7]) is given as “strong suppression”. Also, in test [3], the “palmitate-induced UPR-associated and pro-Th2 cytokine gene expression” value is reported as “suppressed”.

With `CCCCCCCCCCC[C@@H](C[C@@H]1OC(=O)[C@H]1CCCCCC)OC(=O)[C@H](CC(C)C)NC=O` [Orlistat], in the test on CACO-2 cells [5], the “UPR-related or pro-Th2 gene expression by peanut extract” value is listed as “no effect”; the “egg yolk plasma-induced UPR-associated and pro-Th2 cytokine gene expression” value is listed as “suppressed”.
